# Patent US12325708B2, “Adenosine 2 receptor antagonists” (Nektar Therapeutics, priority 2019, dated 2025)
# Columns and labels:
# [1] = Brain-to-plasma ratio (B/P) after administration; format: in vivo, Sprague-Dawley rats; details: Table 2, brain-to-plasma ratio at 1 h
# Method in brief: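 Plasma pharmacokinetic parameters determined after oral (PO) administration; brain-to-plasma concentration ratio (B/P) used as the brain penetration measure.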
# A1 receptor = target: T1, A1 receptor (Homo sapiens, UniProt P30542); assay: Radioligand receptor binding assay, A1 receptor; details: cell membranes overexpressing A1 receptor, read-out: Potency Ki A1
# T1 construct: purchased
# T1 sequence (P30542 1-326): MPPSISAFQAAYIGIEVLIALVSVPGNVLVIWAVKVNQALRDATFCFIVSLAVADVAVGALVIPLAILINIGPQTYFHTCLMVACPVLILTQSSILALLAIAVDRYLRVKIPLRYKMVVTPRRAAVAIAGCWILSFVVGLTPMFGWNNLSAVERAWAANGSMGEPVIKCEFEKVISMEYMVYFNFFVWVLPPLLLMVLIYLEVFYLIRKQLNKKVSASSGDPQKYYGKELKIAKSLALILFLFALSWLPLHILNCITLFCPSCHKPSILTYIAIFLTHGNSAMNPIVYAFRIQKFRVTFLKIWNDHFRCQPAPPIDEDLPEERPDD
# Method in brief: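 Membranes from cell lines overexpressing human A2A, A1 or A3 receptors were incubated 60 min at room temperature with the receptor-appropriate [3H] tracer. After filtration and washing in 50 mM Tris HCl pH 7.5, bound label was counted by scintillation. IC50 came from nonlinear regression and Ki from the Cheng-Prusoff equation.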
SMILES,B/P (1 h) [1],Ki (A1 receptor) [µM],"Kp at 1 h ([1]; Sprague-Dawley, rat)"
"COCCOc1ccc(N2CCN(CCN(C)c3cc4nc(-c5ncco5)nn4c(N)n3)CC2)cc1 [Compound 1, N^7-(2-{4-[4-(2-methoxyethoxy)phenyl]piperazin-1-yl}ethyl)-N^7-methyl-2-(1,3-oxazol-2-yl)[1,2,4]triazolo[1,5-c]pyrimidine-5,7-diamine]",0.06^1,50,
"COCCOc1cnc(N2CCN(CCN(C)c3cc4nc(-c5ncco5)nn4c(N)n3)CC2)c(F)c1 [Compound 4, N^7-(2-{4-[3-fluoro-5-(2-methoxyethoxy)pyridin-2-yl]piperazin-1-yl}ethyl)-N^7-methyl-2-(1,3-oxazol-2-yl)[1,2,4]triazolo[1,5-c]pyrimidine-5,7-diamine]",,14,0.04
